Measurements as given in article PMC12655351, “Synthesis and Anticancer Activity Evaluation of New 5-((5-Nitrofuran-2-yl)allylidene)-2-thioxo-4-thiazolidinones” (Pharmaceuticals, 2025).

What was measured:
[1] = system: MCF-7; test: [3H]-thymidine incorporation assay; format: cell-based; details: Homo sapiens, MCF7; MCF-7, 24 h of treatment
Procedure: (§1) Another method of assessing the cytotoxic effects of tested compounds, [^3H]-thymidine incorporation assay, was applied. This method provided the capability to analyze the antiproliferative activity of novel structures on MCF-7 and MDA-MB-231 through their ability to incorporate thymidine into the cells. The acquired results further confirmed the potent activity of the 14b compound as the most prominent structure among the novel compounds (Table 2). The test was carried out in triplicate at concentrations of 5, 15, and 30 μM for the MDA-MB-231 cell line and 1, 5, and 10 μM for the MCF-7 cell line.
(§2) Following the selection of cell lines for further study, the effects of all compounds on cell proliferation were evaluated on MCF-7 and MDA-MB-231 cell lines. Cells were seeded in 24-well plates and cultured as described above. Cells were treated with the compounds at concentrations 1, 5, and 10 μM, and 5, 15, and 30 μM for MCF-7 and MDA-MB-231 cell lines, respectively, for 24 h. Subsequently, 0.5 μCi [^3H]-thymidine was added for 4 h at 37 °C. Then, plates with cells were placed on the ice, the liquid was aspirated, and cells were washed twice with 1mL of 0.05 M Tris-HCl buffer comprising 0.11 M NaCl and precipitated by adding 1 mL per well of 5% trichloroacetic. After precipitation, the cells were dissolved with 1 mL of 0.1 M NaOH with 1% SDS (Sigma-Aldrich, St. Louis, MO, USA) at room temperature (RT). The cell lysates were transferred into scintillation vials containing 2 mL of scintillation fluid (Ultima Gold™ XR, PerkinElmer, MA, USA), and cell-associated radioactivity was measured using a Scintillation Counter 1900 TR, TRI-CARB (Packard, Perkin Elmer, Inc., San Jose, CA, USA). The [^3H]-thymidine uptake was expressed as a percentage of the control value.

[2] = system: MDA-MB-231; test: [3H]-thymidine incorporation assay; format: cell-based; details: Homo sapiens; MDA-MB-231, 24 h of treatment
Procedure: as §1, §2

CC(C(=O)O)N1C(=O)/C(=C/C=C/c2ccc([N+](=O)[O-])o2)SC1=S (centres unmarked) [2b, 2-((Z)-5-((E)-3-(5-Nitrofuran-2-yl)allylidene)-4-oxo-2-thioxothiazolidin-3-yl)propanoic acid]
IC50 [1]: 6.61 µM
IC50 [2]: 5.56 µM
